Laboratory results as given in ChEMBL document CHEMBL5046257, “Synthesis and Evaluation of Bakuchiol Derivatives as Potent Anti-inflammatory Agents in Vitro and in Vivo” (J Nat Prod, 2022).
Activity calls are given as the source filed them. No cut-off for these calls is given here.

Experiments:
[1] = Cytotoxicity against mouse RAW 264.7 cells assessed as decreased cell viability measured after 24 hrs by MTT assay; assay type: toxicity, cell-based, RAW264.7
Danio rerio [2] = organism: Danio rerio; assay: Antiinflammatory activity in zebrafish assessed as inhibition of LPS-induced ROS production at 2.5 to 5 uM for 24 hrs by laser confocal microscope; assay type: functional, organism-based; details: dose 2.5-5 µM
RAW264.7 [3] = assay: Antiinflammatory activity in mouse RAW264.7 cells assessed as downregulation of LPS-induced JNK phosphorylation at 5 to 10 uM for 1 hrs followed by LPS stimulation for 23 hrs by Western blot analysis; assay type: functional, cell-based; details: dose 5-10 µM, time 24.0 hrs
RAW264.7 [4] = assay: Antiinflammatory activity against mouse RAW264.7 cells assessed as inhibition of LPS-induced COX2 expression at 10 uM for 1 hrs followed by LPS stimulation for 23 hrs by western blot analysis; assay type: functional, cell-based; details: time 24.0 hrs
RAW264.7 [5] = assay: Antiinflammatory activity in mouse RAW264.7 cells assessed as upregulation of LPS-induced HO-1 expression at 5 to 10 uM for 1 hrs followed by LPS stimulation for 23 hrs by Western blot analysis; assay type: functional, cell-based; details: dose 5-10 µM, time 24.0 hrs
RAW264.7 [6] = assay: Antiinflammatory activity in mouse RAW 264.7 cells assessed as inhibition of LPS-induced TNF-alpha production at 20 uM for 1 hrs followed by LPS stimulation for 23 hrs by ELISA; assay type: functional, cell-based; details: time 24.0 hrs
RAW264.7 [7] = assay: Antiinflammatory activity in mouse RAW 264.7 cells assessed as inhibition of LPS-induced NO production at 20 uM for 1 hrs pretreatment followed by LPS stimulation for 23 hrs by Griess reagent assay; assay type: functional, cell-based; details: time 24.0 hrs
RAW264.7 [8] = assay: Antiinflammatory activity against mouse RAW264.7 cells assessed as inhibition of LPS-induced COX2 expression at 5 to 10 uM for 1 hrs followed by LPS stimulation for 23 hrs by western blot analysis; assay type: functional, cell-based; details: dose 5-10 µM, time 24.0 hrs
RAW264.7 [9] = assay: Antiinflammatory activity in mouse RAW264.7 cells assessed as upregulation of LPS-induced NRF2 expression at 5 to 10 uM for 1 hrs followed by LPS stimulation for 23 hrs by Western blot analysis; assay type: functional, cell-based; details: dose 5-10 µM, time 24.0 hrs
Danio rerio [10] = organism: Danio rerio; assay: Antiinflammatory activity in zebrafish assessed as inhibition of LPS-induced NO production at 2.5 to 5 uM for 24 hrs by laser confocal microscope; assay type: functional, organism-based; details: dose 2.5-5 µM
RAW264.7 [11] = assay: Antiinflammatory activity in mouse RAW264.7 cells assessed as inhibition of LPS-induced NFkB p65 activation at 5 to 10 uM for 1 hrs followed by LPS stimulation for 23 hrs by Western blot analysis; assay type: functional, cell-based; details: dose 5-10 µM, time 24.0 hrs
RAW264.7 [12] = assay: Antiinflammatory activity in mouse RAW264.7 cells assessed as downregulation of LPS-induced ERK phosphorylation at 5 to 10 uM for 1 hrs followed by LPS stimulation for 23 hrs by Western blot analysis; assay type: functional, cell-based; details: dose 5-10 µM, time 24.0 hrs
RAW264.7 [13] = assay: Antiinflammatory activity in mouse RAW 264.7 cells assessed as inhibition of LPS-induced TNF-alpha production at 5 to 10 uM for 1 hrs followed by LPS stimulation for 23 hrs by ELISA; assay type: functional, cell-based; details: dose 5-10 µM, time 24.0 hrs
RAW264.7 [14] = assay: Antiinflammatory activity against mouse RAW264.7 cells assessed as inhibition of LPS-induced iNOS expression at 5 to 10 uM for 1 hrs followed by LPS stimulation for 23 hrs by western blot analysis; assay type: functional, cell-based; details: dose 5-10 µM, time 24.0 hrs
RAW264.7 [15] = assay: Antiinflammatory activity in mouse RAW264.7 cells assessed as downregulation of LPS-induced MAPK phosphorylation at 5 to 10 uM for 1 hrs followed by LPS stimulation for 23 hrs by Western blot analysis; assay type: functional, cell-based; details: dose 5-10 µM, time 24.0 hrs
RAW264.7 [16] = assay: Antiinflammatory activity in mouse RAW 264.7 cells assessed as inhibition of LPS-induced IL-6 production at 5 to 10 uM for 1 hrs followed by LPS stimulation for 23 hrs by ELISA; assay type: functional, cell-based; details: dose 5-10 µM, time 24.0 hrs
RAW264.7 [17] = assay: Antiinflammatory activity in mouse RAW 264.7 cells assessed as inhibition of LPS-induced IL-6 production at 20 uM for 1 hrs followed by LPS stimulation for 23 hrs by ELISA; assay type: functional, cell-based; details: time 24.0 hrs
RAW264.7 [18] = assay: Antiinflammatory activity in mouse RAW264.7 cells assessed as inhibition of LPS-induced ROS production at 5 to 10 uM for 1 hrs followed by LPS stimulation for 23 hrs by DCFH-DA staining based fluorescence assay; assay type: functional, cell-based; details: dose 5-10 µM, time 24.0 hrs
RAW264.7 [19] = assay: Antiinflammatory activity against mouse RAW264.7 cells assessed as inhibition of LPS-induced iNOS expression at 10 uM for 1 hrs followed by LPS stimulation for 23 hrs by western blot analysis; assay type: functional, cell-based; details: time 24.0 hrs
RAW264.7 [20] = assay: Antiinflammatory activity in mouse RAW264.7 cells assessed as inhibition of LPS-induced IKKbeta phosphorylation at 5 to 10 uM for 1 hrs followed by LPS stimulation for 23 hrs by Western blot analysis; assay type: functional, cell-based; details: dose 5-10 µM, time 24.0 hrs

`C=C[C@@](C)(/C=C/c1ccc(OCc2cn(-c3ccc(OC)cc3)nn2)cc1)CCC=C(C)C` gave an IC50 at 24 h [1] of 47.4 µM.
`C=C[C@@](C)(/C=C/c1ccc(O)cc1)CCC=C(C)C` [BAKUCHIOL] showed an IC50 at 24 h [1] of 97.2 µM.
With `C=C[C@@](C)(/C=C/c1ccc(OCC(=O)Nc2ccc(F)cc2)cc1)CCC=C(C)C` the IC50 at 24 h [1] was 59.1 µM.
Work on `C=C[C@@](C)(/C=C/c1ccc(OCc2cn(-c3ccccc3)nn2)cc1)CCC=C(C)C` yielded an IC50 at 24 h [1] of 172 µM.
Work on `C=C[C@@](C)(/C=C/c1ccc(OCc2cn(Cc3ccc(Cl)cc3)nn2)cc1)CCC=C(C)C` yielded an IC50 at 24 h [1] of 327 µM.
For `C=C[C@@](C)(/C=C/c1ccc(OCc2cn(Cc3ccc(C)cc3)nn2)cc1)CCC=C(C)C`, the IC50 at 24 h [1] was 371 µM.
`C=C[C@@](C)(/C=C/c1ccc(OCc2cn(-c3ccc(Cl)cc3)nn2)cc1)CCC=C(C)C` gave an IC50 at 24 h [1] of 47.6 µM.
For `C=C[C@@](C)(/C=C/c1ccc(OCc2cn(-c3ccc(C(F)(F)F)cc3)nn2)cc1)CCC=C(C)C`, the IC50 at 24 h [1] was 82.1 µM.
With `C=C[C@@](C)(/C=C/c1ccc(OCC(=O)NC(c2ccccc2)P(=O)(OCC)OCC)cc1)CCC=C(C)C` (stereo not given in full) the IC50 at 24 h [1] was 33.4 µM.
`C=C[C@@](C)(/C=C/c1ccc(OC(=O)c2ccc3ncccc3c2)cc1)CCC=C(C)C` showed an IC50 at 24 h [1] of 88 µM.
`C=C[C@@](C)(/C=C/c1ccc(OCc2cn(Cc3ccc(F)cc3)nn2)cc1)CCC=C(C)C` gave an IC50 at 24 h [1] of 157 µM.
`C=C[C@@](C)(/C=C/c1ccc(OC(=O)c2cn(-c3ccc(OC)cc3)nn2)cc1)CCC=C(C)C` gave an IC50 at 24 h [1] of 64.7 µM.
`C=C[C@@](C)(/C=C/c1ccc(OCc2cn(Cc3ccccc3)nn2)cc1)CCC=C(C)C` gave an IC50 at 24 h [1] of 480 µM.
`C=C[C@@](C)(/C=C/c1ccc(OC(=O)/C=C/c2ccccc2)cc1)CCC=C(C)C` showed an IC50 at 24 h [1] of 157 µM.
In the case of `C=C[C@@](C)(/C=C/c1ccc(OC(=O)c2cc3cc(OC)ccc3[nH]2)cc1)CCC=C(C)C`, the IC50 at 24 h [1] is reported as 329 µM.
Work on `C=C[C@@](C)(/C=C/c1ccc(OC(=O)c2cn(-c3ccccc3)nn2)cc1)CCC=C(C)C` yielded an IC50 at 24 h [1] of 69.9 µM.
`C=C[C@@](C)(/C=C/c1ccc(OCC(=O)Nc2cccc3cccnc23)cc1)CCC=C(C)C` showed an IC50 at 24 h [1] of 649 µM.
Compound `C=C[C@@](C)(/C=C/c1ccc(OC(=O)c2cc3cc(Cl)ccc3[nH]2)cc1)CCC=C(C)C` has an IC50 at 24 h [1] of 110 µM.
`C=C[C@@](C)(/C=C/c1ccc(OCC(=O)Nc2ccccc2)cc1)CCC=C(C)C` showed an IC50 at 24 h [1] of 63.3 µM.
With `C=C[C@@](C)(/C=C/c1ccc(OCC(=O)NC(c2ccc(C)cc2)P(=O)(OCC)OCC)cc1)CCC=C(C)C` (stereo not given in full) the IC50 at 24 h [1] was 209 µM.
Compound `C=C[C@@](C)(/C=C/c1ccc(OCC(=O)NC(c2ccc(F)cc2)P(=O)(OCC)OCC)cc1)CCC=C(C)C` (stereo not given in full) has an IC50 at 24 h [1] of 110 µM.
Work on `C=C[C@@](C)(/C=C/c1ccc(OCc2cn(Cc3ccc(OC)cc3)nn2)cc1)CCC=C(C)C` yielded an IC50 at 24 h [1] of 273 µM.
With `C=C[C@@](C)(/C=C/c1ccc(OCC(=O)N2CCCC2)cc1)CCC=C(C)C` the inhibition (Danio rerio [2]) was “Dose-Dependent Effect”, the Activity (RAW264.7 [3]) was “Active” and the inhibition (RAW264.7 [4]) was “Active”. The Activity (RAW264.7 [5]) was “Dose-Dependent Effect”, the IC50 at 24 h [1] was 40.5 µM and the inhibition (RAW264.7 [6]) was “Active”. The inhibition (RAW264.7 [7]) was “Active”, the inhibition (RAW264.7 [8]) was “Dose-Dependent Effect” and the Activity (RAW264.7 [9]) was “Dose-Dependent Effect”. The inhibition (Danio rerio [10]) was “Dose-Dependent Effect”, the inhibition (RAW264.7 [11]) was “Active” and the Activity (RAW264.7 [12]) was “Active”. The inhibition (RAW264.7 [13]) was “Dose-Dependent Effect”, the inhibition (RAW264.7 [14]) was “Dose-Dependent Effect” and the Activity (RAW264.7 [15]) was “Active”. For the same compound, the inhibition (RAW264.7 [16]) was “Dose-Dependent Effect”, the inhibition (RAW264.7 [17]) was “Active” and the inhibition (RAW264.7 [18]) was “Dose-Dependent Effect”. The inhibition (RAW264.7 [19]) was “Active” and the inhibition (RAW264.7 [20]) was “Active”.
Work on `C=C[C@@](C)(/C=C/c1ccc(OC(=O)c2cn(-c3ccc(C)cc3)nn2)cc1)CCC=C(C)C` yielded an IC50 at 24 h [1] of 37.2 µM.
`C=C[C@@](C)(/C=C/c1ccc(OCC(=O)Nc2ccc(Cl)cc2)cc1)CCC=C(C)C` showed an IC50 at 24 h [1] of 50.7 µM.
Work on `C=C[C@@](C)(/C=C/c1ccc(OCc2cn(-c3ccc(F)cc3)nn2)cc1)CCC=C(C)C` yielded an IC50 at 24 h [1] of 233 µM.
Work on `C=C[C@@](C)(/C=C/c1ccc(OC(=O)c2cn(-c3ccc(Cl)cc3)nn2)cc1)CCC=C(C)C` yielded an IC50 at 24 h [1] of 115 µM.
Work on `C=C[C@@](C)(/C=C/c1ccc(OC(=O)c2cn(-c3ccc(F)cc3)nn2)cc1)CCC=C(C)C` yielded an IC50 at 24 h [1] of 79.9 µM.
`C=C[C@@](C)(/C=C/c1ccc(OCc2cn(-c3ccc(C)cc3)nn2)cc1)CCC=C(C)C` showed an IC50 at 24 h [1] of 86.9 µM.
Work on `C=C[C@@](C)(/C=C/c1ccc(OCC(=O)N2CCCCC2)cc1)CCC=C(C)C` yielded an IC50 at 24 h [1] of 58.6 µM.
In the case of `C=C[C@@](C)(/C=C/c1ccc(OC(=O)c2cc3ccccc3[nH]2)cc1)CCC=C(C)C`, the IC50 at 24 h [1] is reported as 108 µM.
